From PubChem BioAssay AID623861 (Sanford-Burnham Center for Chemical Genomics, 2012)
Activity calls are given as the source filed them.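 Rule for the calls: active = compounds whose EC50 for boosting single-cell stem cell survival is at or below a set limit; inactive = the rest.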

Tested on: human iPSC single-cell survival, ATP luminescence
Experiment: enhancers of single-cell hiPSC survival, dose response, luminescence (AID 623861)

SMILES | EC50
O=C(Nc1ccncc1)c1cc(S(=O)(=O)N2CCCC2)ccc1Cl | 20.5 µM (inactive)
Cc1ccc([C@@H]2C[C@H]3[C@@H](CN2S(=O)(=O)c2ccc(Cl)cc2)C(=O)C[C@@H](c2ccc(C)cc2)N3S(=O)(=O)c2ccc(Cl)cc2)cc1 | > 80 µM (inactive)
Cc1ccc(NS(=O)(=O)c2ccc3c(c2)CC(=O)N3)c(C)c1 | > 80 µM (inactive)
CCCCCCC[C@@H](C/C=C/CCC(=O)N(C)C/C(=C/Cl)C/C(=C\C(=O)N1CC(OC)=CC1=O)OC)OC | 1.11 µM
O=C(C(O)c1ccc(Br)cc1)N1CCC(Nc2ccc3[nH]ncc3c2)CC1 (stereo unspecified) | 6.68 µM
O=C(Nc1ccncc1)c1c(F)cccc1F | 3.27 µM
C=C1C(=O)O[C@@H]2C[C@@H](C)[C@@H]3C=CC(=O)[C@@]3(C)[C@@H](O)[C@H]12 | 7.88 µM
O=S(=O)(c1cccc2cnccc12)N1CCNCC1 | 2.89 µM
CC(C)C12CN3CC(C(C)C)(CN(C1)C3c1ccccc1O)C2=O (stereo unspecified) | > 80 µM (inactive)
COc1ccccc1CC(=O)Nc1ccc(-c2noc(COc3cccc(C)c3C)n2)cc1 | > 80 µM (inactive)
CCn1c(Cl)c(C=O)s/c1=N\S(=O)(=O)c1ccccc1 | 24.8 µM (inactive)
CC1CCN(C(=O)c2[nH]cnc2C(=O)NCC(=O)OC(C)(C)C)CC1 | > 80 µM (inactive)
CN1Cc2cnnn2-c2ccccc2C1C#N (stereo unspecified) | 25.7 µM (inactive)
O=C(NCC1CC1)c1ccc(-c2cn[nH]c2)c2ccoc12 | 13.1 µM
CC(OC(=O)c1ccc(S(C)(=O)=O)c([N+](=O)[O-])c1)C(=O)NC1C2CC3CC(C2)CC1C3 (stereo unspecified) | > 80 µM (inactive)
CS(=O)(=O)Nc1ccc2c3c(cccc13)CC2 | > 80 µM (inactive)
COCCNC(=O)c1ccc(-c2cn[nH]c2)c2ccoc12 | 11.2 µM
CCOCCCNC(=O)/C(C#N)=C/c1ccc([N+](=O)[O-])o1 | 53.1 µM (inactive)
COc1ccc(CC(=O)N2N=C(c3ccncc3)CC2(O)C(F)(F)F)cc1 (stereo unspecified) | > 80 µM (inactive)
CN(C)CCN(C(=O)c1ccc2ccccc2c1)c1nc2cc3c(cc2s1)OCO3 | > 80 µM (inactive)
CCc1c(C(=O)Nc2ccc(OC)cc2)[nH]c(C)c1C(C)=O | > 80 µM (inactive)
CCCCc1cc(=O)oc2cc(OCc3cc(OC)c(OC)c(OC)c3)c(Cl)cc12 | > 80 µM (inactive)
COc1cccc(C2CC(=O)N3CN(c4cccc(Cl)c4C)CSC3=C2C#N)c1OC (stereo unspecified) | > 80 µM (inactive)
COc1c(Cl)cnn(-c2ccc(C)cc2)c1=O | > 80 µM (inactive)

SMILES | EC50
CC1(C)Cc2c(C#N)c(NCC3CCCO3)nc(-c3ccco3)c2CO1 (stereo unspecified) | 15.6 µM
COc1ccc(C(C#N)(CC(=O)O)c2cnccn2)cc1OC (stereo unspecified) | > 80 µM (inactive)
O=c1c(Cl)c(Cl)cnn1Cc1nnc(-c2ccccc2Br)o1 | 8.37 µM
C1CCN(c2nc3nonc3nc2N2CCCC2)C1 | > 80 µM (inactive)
O=C(Nc1nc(-c2ccncc2)cs1)C1COc2ccccc2O1 (stereo unspecified) | 3.19 µM
CC(OC(=O)c1ccc2c(=O)n3c(nc2c1)CCC3)C(=O)Nc1ccc(C(N)=O)cc1 (stereo unspecified) | 55.6 µM (inactive)
Cc1ccc(CCN2CC(C(=O)NCCCN3CCCCCC3)CC2=O)cc1 (stereo unspecified) | > 80 µM (inactive)
O=C1/C(=C/c2ccncc2)CCC/C1=C\c1ccncc1 | 10.1 µM
O=C(Nc1ccc(N2CCOCC2)cc1)c1cccc(S(=O)(=O)N2CCCC2)c1 | > 80 µM (inactive)
CN1C/C(=C/c2cccnc2)C(=O)/C(=C/c2cccnc2)C1 | 13.7 µM
Cc1c(C(=O)NCc2ccccc2C(F)(F)F)sc(=O)n1Cc1ccc2ccccc2c1 | > 80 µM (inactive)
Cc1ccc(C(=O)OCc2cc(=O)n3ccsc3n2)s1 | > 80 µM (inactive)
CCOC(=O)c1c(-c2cc(OC)c(OC)c(OC)c2)csc1N | > 80 µM (inactive)
C[C@@H](NC(=O)[C@@H]1Cc2ccccc2CN1)C(=O)Nc1ccc2c(c1)OCO2 | > 80 µM (inactive)
CCC(C(=O)Nc1ccc2[nH]ncc2c1)c1ccccc1 (stereo unspecified) | 9.45 µM
C=C(C)[C@@]12OC3(c4ccccc4)O[C@@H]1C1[C@@H]4O[C@]4(CO)[C@@H](O)[C@]4(O)C(=O)C(C)=C[C@H]4[C@@]1(O3)[C@H](C)[C@H]2OC(=O)/C=C/C=C/c1ccccc1 (stereo partly specified) | < 0.156 µM
CN(CCOc1ccc(-c2ccn(S(=O)(=O)c3c(Cl)cccc3Cl)n2)cc1)c1ccccn1 | > 80 µM (inactive)
C=C1C(C)C2C(Cc3ccccc3)NC(=O)C23OC(=O)/C=C/C(O)CCCC(C)C/C=C/C3C1O (stereo unspecified) | 11.5 µM
COc1ccc(CN(C)CCCn2cnc3c(OC)ncnc32)cc1OC | > 80 µM (inactive)
CN1C2CCC1/C(=C/c1ccccn1)C(=O)/C2=C\c1ccccn1 | 6.32 µM
CC(Oc1ccccc1)C(=O)Nc1nc(-c2ccncc2)cs1 (stereo unspecified) | 37.8 µM (inactive)
Cn1nc(-c2ccccc2)c(C(O)c2ccccc2C(F)(F)F)c1Cl (stereo unspecified) | > 80 µM (inactive)
O=C(NCCCN1CCCCCC1)C1CC(=O)N(CCc2ccccc2)C1 (stereo unspecified) | > 80 µM (inactive)
CCOC(=O)c1c(C)nc2sc3c(c2c1-c1ccc(OC)cc1)NC(c1ccccc1)NC3=O (stereo unspecified) | > 80 µM (inactive)

SMILES | EC50
CCCc1nc(SCC(=O)Nc2nc3c(s2)CCCC3)c2ccccc2n1 | > 80 µM (inactive)
COc1ccccc1Sc1nc(-c2ccccn2)ncc1OC | 40.8 µM (inactive)
N#C/C(=C/c1cccc([N+](=O)[O-])c1)c1nnc2n1CCCCC2 | 7.37 µM
CCOc1ccc(S(=O)(=O)Nc2cccc(C(=O)N3CCN(c4ccc(OC)cc4)CC3)c2)cc1 | > 80 µM (inactive)
CCS(=O)(=O)c1ncc(Cl)c(C(=O)Nc2ccc(S(=O)(=O)N(C)c3ccccc3)cc2)n1 | > 80 µM (inactive)
NC(=O)c1ccc(NC(=O)CCC(=O)c2cccs2)cc1 | 9.86 µM
CC(C)(C)NC(=O)Cn1nnc(-c2ccccc2NC(=O)c2cnccn2)n1 | 10.8 µM
Cc1cccc(Cc2c(C)nc3c(C(=O)NCc4ccco4)cnn3c2C)c1 | > 80 µM (inactive)
O=C(Cc1ccc(Br)cc1)Nc1ccc2[nH]ncc2c1 | 25.2 µM (inactive)
CNc1nc(Cl)nc(NC(C)(C)C)n1 | > 80 µM (inactive)
O=c1cc(-c2ccccc2)nc2nc(SCc3ccccc3)[nH]n12 | > 80 µM (inactive)
Oc1ccc(-c2onc(C(F)(F)F)c2-c2cscn2)c(O)c1 | > 80 µM (inactive)
COC(=O)c1ccc(C(=O)OC)c(NC(=O)CSc2cccc[n+]2[O-])c1 | > 80 µM (inactive)
CCCc1ccc(C(=O)N2CCN(c3ccccc3OCC)CC2)cc1 | > 80 µM (inactive)
CN(C)c1ccc(-c2ccnc3c2CC(C)(C(=O)Nc2ccc(Cl)c(C(F)(F)F)c2)O3)cc1 (stereo unspecified) | > 80 µM (inactive)
CNc1cc(Cl)c2nonc2c1[N+](=O)[O-] | 12.9 µM
CCOC(=O)c1ccc(NC(=O)c2nc(S(=O)(=O)Cc3ccccc3)ncc2Cl)cc1 | > 80 µM (inactive)
O=C(NCc1ccccc1)c1ccc(-c2cn[nH]c2)c2ccoc12 | 1.22 µM
O=C(Nc1ccncc1)c1cc(S(=O)(=O)N2CCOCC2)ccc1Cl | 20.4 µM (inactive)
O=C(Nc1ccncc1)c1ccccc1F | 41 µM (inactive)
COC(=O)CCSc1cc([N+](=O)[O-])cc2c1c(C1OCCS1)nn2-c1ccccc1 (stereo unspecified) | 42.7 µM (inactive)
CCC(OC(=O)c1ccc(S(C)(=O)=O)c([N+](=O)[O-])c1)C(=O)NC1C2CC3CC(C2)CC1C3 (stereo unspecified) | > 80 µM (inactive)
Cc1c(C(=O)OCC(=O)Nc2ccc(C(N)=O)cc2)cccc1[N+](=O)[O-] | 60.8 µM (inactive)
Cn1cnnc1SCC(=O)c1ccc2c(c1)OCO2 | > 80 µM (inactive)

SMILES | EC50
CC1CNCCN1S(=O)(=O)c1cccc2cnccc12 (stereo unspecified) | > 80 µM (inactive)
O=C(CNC(=O)c1ccccc1)OC(C(=O)Nc1cc(C(F)(F)F)ccc1Cl)c1ccccc1 (stereo unspecified) | > 80 µM (inactive)
C[C@@H]1CCCCO[C@@H](CN(C)S(=O)(=O)c2cccs2)[C@@H](C)CN([C@H](C)CO)C(=O)c2cc(NS(=O)(=O)c3ccccc3)ccc2O1 | > 80 µM (inactive)
CC(C)CC1Nc2ncnc(N3CCN(c4ccccc4)CC3)c2N(Cc2ccccc2)C1=O (stereo unspecified) | > 80 µM (inactive)
O=C(COC(=O)c1ccccc1C(=O)c1ccc(Cl)c([N+](=O)[O-])c1)NC1CC1 | > 80 µM (inactive)
Cc1sc(-c2ccccn2)nc1OC(=O)c1ccc(Cl)c(Cl)c1 | > 80 µM (inactive)
CC(OC(=O)c1ccc(S(=O)(=O)N2CCCCC2)cc1)C(=O)Nc1ccc(C(N)=O)cc1 (stereo unspecified) | 8.72 µM
CCSc1cnn(-c2ccccc2)c(=O)c1Cl | > 80 µM (inactive)
C=C1C(=O)OC2C1CCC(C)=C1C(=O)C3OC3(C)C12 (stereo unspecified) | > 80 µM (inactive)
OC(c1ccc(Cl)cc1)c1ncc(-c2cccc(C(F)(F)F)c2)[nH]1 (stereo unspecified) | > 80 µM (inactive)
CN(Cc1ccc(C(F)(F)F)cc1)C(=O)[C@H]1O[C@@H](n2cnc3c(N)ncnc32)[C@H](O)[C@@H]1O | 26.1 µM (inactive)
CN(C(=O)COC(=O)c1nc(Cl)c(Cl)c(Cl)c1Cl)C1CCS(=O)(=O)C1 (stereo unspecified) | 31.1 µM (inactive)
O=C1NCCN1c1ccccc1 | > 80 µM (inactive)
CCCCCCn1c(SCCN2CCOCC2)nc2c1c(=O)[nH]c(=O)n2C | > 80 µM (inactive)
Cc1ccc(NC(=O)/C(=C\c2ccc([N+](=O)[O-])cc2)NC(=O)c2ccccc2)cc1 | > 80 µM (inactive)
COc1ccc(S(=O)(=O)Nc2ccc3c(c2)C(=O)N([C@H](C)CO)C[C@H](C)[C@@H](CN(C)C(=O)NC2CCCCC2)O3)cc1 | > 80 µM (inactive)
COC(=O)c1[nH]c2ccccc2c1NC(=O)CCN1CCSCC1 | > 80 µM (inactive)
C=C1C(=O)OC2CC(C)C3C=CC(=O)C3(C)C(O)C12 (stereo unspecified) | 9.47 µM
CCCNC(=O)COC(=O)c1ccccc1C(=O)c1ccc(Cl)c([N+](=O)[O-])c1 | 47.1 µM (inactive)
CC1C/C(=C/c2ccncc2)C(=O)/C(=C/c2ccncc2)C1 (stereo unspecified) | 12.9 µM
Cc1ccc(OCCN2CCN(c3nc(NCc4ccco4)c4ccccc4n3)CC2)cc1 | 2.81 µM
Cc1ccc(S(=O)(=O)N[C@H](C(=O)OCC(=O)NC(=O)NCc2ccco2)C(C)C)cc1 | > 80 µM (inactive)
Cc1c(Nc2cc(Cl)c3nonc3c2[N+](=O)[O-])c(=O)n(-c2ccccc2)n1C | > 80 µM (inactive)
O=C(O)c1cc(C(=O)C2CC2)c[nH]1 | > 80 µM (inactive)
